This note sets out measurements from ChEMBL document CHEMBL4330144, “A mitochondria-targeted organic arsenical accelerates mitochondrial metabolic disorder and function injury” (Bioorg Med Chem, 2019).

This experiment relates to NB-4. Kind of experiment: Induction of mitochondrial membrane potential loss in human NB4 cells by JC1 staining based flow cytometry (reference value: 27.7%). It counts as functional. On the technique in general: Flow cytometry measures light scatter and fluorescence of single cells or particles in a stream.

Structures are written as SMILES.

`N#CC(C#N)=NNc1cccc(Cl)c1` [CARBONYL CYANIDE M-CHLOROPHENYLHYDRAZONE] showed an Activity of 93%.
